Results taken from publication PMC7954447 (Science Advances, 2021).

Molecular target: human α7 nicotinic ACh receptor (nAChR) (Homo sapiens, UniProt P36544)
Format: cell-based

Sequence of human α7 nicotinic ACh receptor (nAChR) (P36544 23-502): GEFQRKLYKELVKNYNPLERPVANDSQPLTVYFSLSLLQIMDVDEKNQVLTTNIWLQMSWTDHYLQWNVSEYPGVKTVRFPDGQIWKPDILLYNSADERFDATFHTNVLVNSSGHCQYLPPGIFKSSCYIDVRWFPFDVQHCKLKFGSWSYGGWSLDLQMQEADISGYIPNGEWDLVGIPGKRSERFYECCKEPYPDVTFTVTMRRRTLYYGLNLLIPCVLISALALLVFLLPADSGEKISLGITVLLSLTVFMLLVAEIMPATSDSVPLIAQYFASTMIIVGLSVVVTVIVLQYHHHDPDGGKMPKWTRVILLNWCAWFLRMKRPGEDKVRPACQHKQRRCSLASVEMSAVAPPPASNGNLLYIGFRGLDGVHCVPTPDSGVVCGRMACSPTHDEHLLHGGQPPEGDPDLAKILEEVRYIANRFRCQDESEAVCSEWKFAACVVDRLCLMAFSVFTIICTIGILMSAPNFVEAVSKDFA

Conazolium A [compound 1]
IC50: 24.4 µM
